Test results: US20140079785A1, “COMPOSITION COMPRISING LIPID NANOPARTICLES AND A CORTICOSTEROID OR VITAMIN D DERIVATIVE” (priority 2011, published 2014)

What was measured:
[1] = In vitro skin penetration and permeation of 3H BMV, Franz type diffusion cells; format: in vitro ADME, porcine; settings: barrier-impaired versus intact skin, applied in SLN
Method: The porcine ears were obtained from newly slaughtered pigs from the Danish Meat Trade College (Roskilde, Denmark). The ears were stored at −20° C. and thawed slowly at 4° C. before shaving and removing full-thickness skin from the back of the ears using a scalpel. Subcutaneous tissue was carefully removed with a scalpel and the skin was cut into appropriate pieces before freezing at −20° C. until use (after no more than 14 days). Two skin pieces were obtained from each ear, and they were balanced with respect to intact and barrier-impaired skin.
Skin barrier impairment was induced by 25 successive tape strippings applying D-Squame® tape discs (Cuderm Corp., Dallas, USA). 225 g/cm^2 pressure on the tape was applied with a D-Squame® tape applicator for 5 sec. (Cuderm Corp., Dallas, USA). […]
Penetration profiles of BMV and lipid were evaluated. ^3H-labelled BMV and ^14C-labelled lipid were used to study the penetration of BMV and lipid particles (distearate and tripalmitate) into intact and barrier-impaired skin.
The skin was mounted on Franz type diffusion cells with the dermis side facing the receptor medium (diffusion area 3.14 cm^2, recipient volume 10 ml, constant stirring, temperature kept at 32° C.). […] The exact amount of formulation applied was determined by weighing the spatula before and after application. After complete incubation, the skin was separated and analyzed. […]

[2] = system: IL-1β, IL-4, IL-8, IL-10 and IL-12; test: Cytokine level in ear tissue (MSD mouse TH1/TH2 9-plex); format: in vivo, mice; settings: upon treatment with BMV
Method: The remaining ear tissue from the 8 mm biopsy was cut into two halves, one of which was tape stripped before analysing the drug concentration and the other was used for cytokine analysis. Both were snap-frozen in liquid nitrogen and stored at −80° C. until the analysis was carried out.
The ear tissue was homogenized in 200 μl lysis buffer using a Precellys® 24 tissue homogenizer with a Cryolys cooling unit from Bertin Technologies (Montigny-le-Bretonneux, France). The lysis buffer was composed of 1 mM Na3VO4, 0.4% (v/v) nonyl phenoxypolyethoxylethanol (NP40) and the protease inhibitor Complete™ from Roche Diagnostics (Mannheim, Germany) dissolved in PBS. […] The supernatant was kept at −80° C. until the MSD® cytokine assay was performed. A determination of the total protein concentration was performed to normalize the sample concentration before the cytokine determination. […] Specific level of the cytokines IFN-γ, IL-1-β, IL-2, IL-4, IL-5, IL-8, IL-10, IL-12 total and TNF-α in the ear tissue were determined with a MSD® mouse TH1/TH2 9-plex Multi-Spot® 96-well 10 spot plate using a MSD® Sector Imager 6000 (Meso Scale Discovery, Gaithersburg, Md., USA). The MSD® assay was optimized for tissue use. […] Washing was repeated 3 times with 0.05% (v/v) polysorbate 20 before finally adding 150 μl read buffer diluted 1:2 in MilliQ water and reading the plate on the MSD® Sector Imager 6000.

increase in BMV penetration [1]: 3-60 fold
Compound: CCCCC(=O)O[C@]1(C(=O)CO)[C@@H](C)C[C@H]2[C@@H]3CCC4=CC(=O)C=C[C@]4(C)[C@@]3(F)[C@@H](O)C[C@@]21C [BMV, Betamethasone-17-Valerate]
concentration of IL-5 and TNF-α [2]: below the detection limit
